Assay results reported in patent publication US7476672B2, “Acetylenic compounds useful in treating inflammatory disorders” (Janssen Pharmaceutica N.V., priority 2002, dated 2009).
Where a name gives a salt, the structure may show the parent alone.

Key:
NADPH-oxidase = target: T1, NADPH-oxidase (Homo sapiens, UniProt P04839); test: Oxidase Inhibition Assay (PMA-stimulated superoxide-mediated reduction of Cytochrome c, whole cells); assay type: cell-based; details: human neutrophils, PMA 0.5 μM, absorbance at 550 nm
T1 construct: endogenous in cells; host or cells: human neutrophils isolated from buffy coat
T1 sequence (P04839 1-570): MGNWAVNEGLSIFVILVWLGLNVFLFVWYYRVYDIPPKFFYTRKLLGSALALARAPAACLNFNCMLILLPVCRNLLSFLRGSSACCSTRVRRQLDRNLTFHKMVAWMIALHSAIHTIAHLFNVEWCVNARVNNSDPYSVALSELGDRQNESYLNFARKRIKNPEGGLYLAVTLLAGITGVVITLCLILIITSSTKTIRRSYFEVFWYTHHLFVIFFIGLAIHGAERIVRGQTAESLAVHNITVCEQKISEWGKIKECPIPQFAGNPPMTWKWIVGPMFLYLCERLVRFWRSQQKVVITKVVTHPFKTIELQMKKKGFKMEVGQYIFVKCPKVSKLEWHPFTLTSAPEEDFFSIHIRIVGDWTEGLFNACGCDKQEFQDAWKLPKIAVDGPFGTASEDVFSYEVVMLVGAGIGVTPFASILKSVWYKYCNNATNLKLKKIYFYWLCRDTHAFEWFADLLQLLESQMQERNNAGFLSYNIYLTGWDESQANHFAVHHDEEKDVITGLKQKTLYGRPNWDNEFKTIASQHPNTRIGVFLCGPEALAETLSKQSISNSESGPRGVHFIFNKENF
Experimental: Whole cells (human neutrophils) are incubated with a pro-inflammatory agonist phorbol myristate acetate (PMA) in the presence or absence of test compound to measure the superoxide-mediated reduction of Cytochrome c at 550 nm. Inhibition of the oxidase is determined by a decreased absorbance at 550 nm, in response to test compound, relative to the absorbance seen with a vehicle control.
The buffy coat from one unit of blood is split evenly into four 50 mL tubes. To each tube 30 mL 3% Dextran (in 0.9% NaCl) is added and the tubes are inverted to mix. Tubes are allowed to sit undisturbed for 25 minutes. The resulting supernatant is recovered into four fresh tubes and centrifuged for 10 minutes at 600×g, 4° C. The supernatant is discarded and pellets are resuspended in 35 mL 0.9% saline. 10 mL Ficoll-Paque PLUS (Pharmacia Biotech AB) is layered beneath the cell suspension and centrifuged at 600×g for 40 minutes at room temperature. The supernatant is again discarded and tubes are tapped to loosen the resulting pellets. 20 mL 0.2% ice cold saline is added for 30 seconds followed by 20 mL 1.6% ice cold saline to lyse the remaining erythrocytes in the pellets. The pellets are centrifuged for 10 minutes at 600×g, 4° C., and the supernatant is discarded. The neutrophil pellets are resuspended in HBSS-glucose buffer (1 mg/mL), adding 2.5 mL to each tube for a total volume of 10 mL. The cell suspension is then counted on a hemocytometer.
The cell suspension is diluted to a concentration of 5×10^6/mL in HBSS-glucose and treated with 1 μg/mL Cytochalasin B (5 mg/mL DMSO) for 10 minutes at 37° C. in a shaking water bath. Cells are diluted to 6×10^5 cells/mL in 92 μM Cytochrome C for a final concentration of 5×10^4 cells/well.
The NADPH-oxidase assay is run on a Biomek 2000 workstation. The workstation adds 2.5 μL compound per well from source plates plus 12.5 μL per well 4 μM PMA (agonist). This volume is brought up to 100 μL total per well in the assay plates upon the addition of the prepared cells (85 μL). The final concentration of drug is 25 μM and PMA is 0.5 μM under these conditions.
The QC curve is a dose-response curve (from about 31.25 nM to about 4000 nM) for competitive binding against a known oxidase inhibitor such as DPI (diphenylene iodonium chloride). The format used for each compound tested is as follows:
The plates are incubated for 1 hour at 37° C. without CO2. The plates are then incubated at room temperature for 30 minutes and the absorbance is read at 550 nm.

| SMILES | IC50 (NADPH-oxidase) | melting point |
| --- | --- | --- |
| Cc1cc(C#Cc2ccc(Cl)cc2)ccc1OCCNCc1ccc(CNCCC(C)C)cc1 [Compound 6, N^1-[2-[4-[(4-chlorophenyl)ethynyl]-2-methylphenoxy]ethyl]-N^4-(3-methylbutyl)-1,4-benzenedimethanamine] | 2280 nM |  |
| Cc1ccc(C#Cc2ccc(OCC(C)NCc3ccc(CN)cc3)c(Cl)c2)cc1 (stereo not drawn) (as salt: HCl) [Compound 24, N-[2-[2-chloro-4-[(4-methylphenyl)ethynyl]phenoxy]-1-methylethyl]-1,4-benzenedimethanamine] |  | > 300 °C |
| CC(COc1ccc(C#Cc2ccc(F)cc2)cc1Cl)NCc1ccc(CN)cc1 (stereo not drawn) (as salt: HCl) [Compound 26, N-[2-[2-chloro-4-[(4-fluorophenyl)ethynyl]phenoxy]-1-methylethyl]-1,4-benzenedimethanamine] |  | > 300 °C |
| CC(COc1ccc(C#Cc2ccc(Cl)cc2)cc1Cl)NCc1ccc(CN)cc1 (stereo not drawn) (as salt: HCl) [Compound 25, N-[2-[2-chloro-4-[(4-chlorophenyl)ethynyl]phenoxy]-1-methylethyl]-1,4-benzenedimethanamine] |  | > 300 °C |
| Cc1cc(C#Cc2ccc(Cl)cc2)ccc1OCCNCc1ccc(CNCCN2CCCC2)cc1 [Compound 14, N^1-[2-[4-[(4-chlorophenyl)ethynyl]-2-methylphenoxy]ethyl]-N^4-[2-(1-pyrrolidinyl)ethyl]-1,4-benzenedimethanamine] | 2350 nM |  |
| Cc1cc(C#Cc2ccc(Cl)cc2)ccc1OCCNCc1ccc(CNCCN2CCOCC2)cc1 [Compound 16, N^1-[2-[4-[(4-chlorophenyl)ethynyl]-2-methylphenoxy]ethyl]-N^4-[2-(4-morpholinyl)ethyl]-1,4-benzenedimethanamine] | 2660 nM |  |
| Cc1cc(C#Cc2ccc(Cl)cc2)ccc1OCCNCc1ccc(CNCCCOC(=O)C2CCCCN2)cc1 (stereo not drawn) [Compound 18, 3-[[[4-[[[2-[4-[(4-chlorophenyl)ethynyl]-2-methylphenoxy]ethyl]amino]methyl]phenyl]methyl]amino]propyl ester 2-piperidinecarboxylic acid] | 3010 nM |  |
| Cc1cc(C#Cc2ccc(Cl)cc2)ccc1OCCNCc1ccc(CNCc2ccccc2)cc1 [Compound 8, N^1-[2-[4-[(4-chlorophenyl)ethynyl]-2-methylphenoxy]ethyl]-N^4-(phenylmethyl)-1,4-benzenedimethanamine] | 3240 nM |  |
| Cc1cc(C#Cc2ccc(Cl)cc2)ccc1OCCNCc1ccc(CNC(C)(C)C)cc1 [Compound 19, N^1-[2-[4-[(4-chlorophenyl)ethynyl]-2-methylphenoxy]ethyl]-N^4-(1,1-dimethylethyl)-1,4-benzenedimethanamine] | 3330 nM |  |
| CCCNCc1ccc(CNCCOc2ccc(C#Cc3ccc(Cl)cc3)cc2)cc1 [Compound 2, N^1-[2-[4-[(4-chlorophenyl)ethynyl]phenoxy]ethyl]-N^4-propyl-1,4-benzenedimethanamine] | 2070 nM |  |
| Cc1cc(C#Cc2ccc(Cl)cc2)ccc1OCC(C)NCc1ccc(CN)cc1 (stereo not drawn) (as salt: HCl) [Compound 1, N-[2-[4-[(4-chlorophenyl)ethynyl]-2-methylphenoxy]-1-methylethyl]-1,4-benzenedimethanamine] |  | > 300 °C |
| CCCCCCCNCc1ccc(CNCCOc2ccc(C#Cc3ccc(Cl)cc3)cc2C)cc1 [Compound 9, N^1-[2-[4-[(4-chlorophenyl)ethynyl]-2-methylphenoxy]ethyl]-N^4-heptyl-1,4-benzenedimethanamine] | 6660 nM |  |
| Cc1cc(C#Cc2ccc(Cl)cc2)ccc1OCCNCc1ccc(CNCCCc2ccccc2)cc1 [Compound 10, N^1-[2-[4-[(4-chlorophenyl)ethynyl]-2-methylphenoxy]ethyl]-N^4-(3-phenylpropyl)-1,4-benzenedimethanamine] | 8340 nM |  |
| CCCCCCNCc1ccc(CNCCOc2ccc(C#Cc3ccc(Cl)cc3)cc2C)cc1 [Compound 12, N^1-[2-[4-[(4-chlorophenyl)ethynyl]-2-methylphenoxy]ethyl]-N^4-hexyl-1,4-benzenedimethanamine] | 11100 nM |  |
| CC(C)CCNCc1ccc(CNCCOc2ccc(C#Cc3ccc(Cl)cc3)cc2)cc1 [Compound 5, N^1-[2-[4-[(4-chlorophenyl)ethynyl]phenoxy]ethyl]-N^4-(3-methylbutyl)-1,4-benzenedimethanamine] | 2170 nM |  |
| CCC(COc1ccc(C#Cc2ccc(Cl)cc2)cc1C)NCc1ccc(CN)cc1 (stereo not drawn) (as salt: HCl) [Compound 23, N-[1-[[4-[(4-chlorophenyl)ethynyl]-2-methylphenoxy]methyl]propyl]-1,4-benzenedimethanamine] |  | 261.5 to 264 °C |

Second part, the compound after the results:

| IC50 (NADPH-oxidase) | melting point | SMILES |
| --- | --- | --- |
| 1200 nM |  | CC(C)NCc1ccc(CNCCOc2ccc(C#Cc3ccc(Cl)cc3)cc2)cc1 [Compound 4, N^1-[2-[4-[(4-chlorophenyl)ethynyl]phenoxy]ethyl]-N^4-(1-methylethyl)-1,4-benzenedimethanamine] |
| 700 nM |  | CC(COc1ccc(C#Cc2ccc(Cl)cc2)cc1Cl)NCc1ccc(CN)cc1 (stereo not drawn) [Compound 25, N-[2-[2-chloro-4-[(4-chlorophenyl)ethynyl]phenoxy]-1-methylethyl]-1,4-benzenedimethanamine] |
| 850 nM |  | CC(COc1ccc(C#Cc2ccccc2)cc1Cl)NCc1ccc(CN)cc1 (stereo not drawn) [Compound 22, N-[2-[2-chloro-4-(phenylethynyl)phenoxy]-1-methylethyl]-1,4-benzenedimethanamine] |
| 770 nM |  | CN(C)CCCNCc1ccc(CNCCOc2ccc(C#Cc3ccc(Cl)cc3)cc2)cc1 [Compound 7, N^1-[2-[4-[(4-chlorophenyl)ethynyl]phenoxy]ethyl]-N^4-[3-(dimethylamino)propyl]-1,4-benzenedimethanamine] |
| 1380 nM |  | CCCNCc1ccc(CNCCOc2ccc(C#Cc3ccc(Cl)cc3)cc2C)cc1 [Compound 3, N^1-[2-[4-[(4-chlorophenyl)ethynyl]-2-methylphenoxy]ethyl]-N^4-propyl-1,4-benzenedimethanamine] |
| 700 nM |  | Cc1cc(C#Cc2ccc(Cl)cc2)ccc1OCC(C)NCc1ccc(CN)cc1 (stereo not drawn) [Compound 1, N-[2-[4-[(4-chlorophenyl)ethynyl]-2-methylphenoxy]-1-methylethyl]-1,4-benzenedimethanamine] |
| 1610 nM |  | Cc1cc(C#Cc2ccc(Cl)cc2)ccc1OCCNCc1ccc(CNCCCN2CCOCC2)cc1 [Compound 15, N^1-[2-[4-[(4-chlorophenyl)ethynyl]-2-methylphenoxy]ethyl]-N^4-[3-(4-morpholinyl)propyl]-1,4-benzenedimethanamine] |
| 1050 nM |  | CC(COc1ccc(C#Cc2ccc(F)cc2)cc1Cl)NCc1ccc(CN)cc1 (stereo not drawn) [Compound 26, N-[2-[2-chloro-4-[(4-fluorophenyl)ethynyl]phenoxy]-1-methylethyl]-1,4-benzenedimethanamine] |
| 800 nM |  | CCC(COc1ccc(C#Cc2ccc(Cl)cc2)cc1C)NCc1ccc(CN)cc1 (stereo not drawn) [Compound 23, N-[1-[[4-[(4-chlorophenyl)ethynyl]-2-methylphenoxy]methyl]propyl]-1,4-benzenedimethanamine] |
| 1770 nM |  | Cc1cc(C#Cc2ccc(Cl)cc2)ccc1OCCNCc1ccc(CN)cc1 [Compound 21, N-[2-[4-[(4-chlorophenyl)ethynyl]-2-methylphenoxy]ethyl]-1,4-benzenedimethanamine] |
| 700 nM |  | Cc1ccc(C#Cc2ccc(OCC(C)NCc3ccc(CN)cc3)c(Cl)c2)cc1 (stereo not drawn) [Compound 24, N-[2-[2-chloro-4-[(4-methylphenyl)ethynyl]phenoxy]-1-methylethyl]-1,4-benzenedimethanamine] |
